In article PMC4049574 (PLoS ONE, 2014):
Structures can show the parent of a compound that is named as a salt.

Assays:
[1] = biological target: T1, human mitochondrial NAD(P)+-dependent malic enzyme (m-NAD(P)-ME, ME2) (Homo sapiens, UniProt P23368); assay: enzyme activation assay ([…] nm), purified enzyme; allosteric-site mutant controls; settings: read-out: ^3 ^, ^4m-NAD(P)-ME WT
[2] = biological target: T1, human mitochondrial NAD(P)+-dependent malic enzyme (m-NAD(P)-ME, ME2); assay: spectrophotometric NADH assay at […] nm; fumarate competition/rescue; allosteric-site mutant controls; type: biochemical

T1 sequence (P23368 19-584): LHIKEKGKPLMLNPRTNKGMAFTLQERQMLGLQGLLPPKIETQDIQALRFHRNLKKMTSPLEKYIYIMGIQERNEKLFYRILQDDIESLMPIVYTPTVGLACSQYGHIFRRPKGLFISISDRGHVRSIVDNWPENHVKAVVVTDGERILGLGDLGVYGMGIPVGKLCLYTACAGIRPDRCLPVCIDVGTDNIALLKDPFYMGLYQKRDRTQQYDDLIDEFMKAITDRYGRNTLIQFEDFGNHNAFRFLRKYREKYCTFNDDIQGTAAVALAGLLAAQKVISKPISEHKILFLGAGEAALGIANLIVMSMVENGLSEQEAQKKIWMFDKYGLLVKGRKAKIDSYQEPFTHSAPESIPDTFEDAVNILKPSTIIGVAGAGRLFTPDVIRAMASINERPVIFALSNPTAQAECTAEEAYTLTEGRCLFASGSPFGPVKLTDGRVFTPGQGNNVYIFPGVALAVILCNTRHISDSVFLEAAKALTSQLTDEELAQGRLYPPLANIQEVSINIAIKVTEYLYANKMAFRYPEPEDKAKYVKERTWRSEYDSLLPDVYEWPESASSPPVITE

`C/C(=C\C(=O)O)C(=O)O` [Mesaconate] gave a fold induction at 20000 µM [1] of 1.75 ± 0.16.
In the case of `CCOC(=O)/C=C/C(=O)O` [Monoethyl fumarate], the fold induction at 10000 µM [1] is reported as 1.83 ± 0.04.
For `COC(=O)/C=C/C(=O)O` [Monomethyl fumarate], the fold induction at 5000 µM [1] was 2.78 ± 0.08.
With `CCOC(=O)/C=C(\O)C(=O)OCC` [diethyl oxalacetate] the IC50 [2] was ~2500 µM.
